Entries after “also recorded” stand apart in the source; their conditions may differ.

Assay [1] relates to bone defects in the jawbones. Briefly: jawbone defect regeneration in cynomolgus monkeys (microCT). The class given is in vivo. As to conditions: 200 μg at bone defect site, one month. The method, then:
Bone defects with a diameter of 2 cm and a depth of 2 cm were artificially produced in the jawbones of young (2 years old) and aged (10 years old) cynomolgus monkeys by using a round steel bar. Next, 200 μg of each of erythromycin, clarithromycin, and azithromycin were added to the bone defect sites. As controls, a non-administered group and a group administered with 200 μg of REGROTH (registered trademark), which has been approved as a bone regenerative agent, were also prepared. The amount of bone regeneration after one month from the administration of each drug was checked by using microCT. In FIG. 10, the symbol * indicates p<0.01.

Assay [2] concerns iCell mesenchymal stem cells. Briefly: bone nodule measurement in mesenchymal stem cells induced from human iPS cells. The assay is classed as cell-based. Conditions: 10 μg/mL for each; 15 days; bone differentiation medium. How it is done:
iCell (registered trademark) mesenchymal stem cells (iCell (registered trademark) MSCs) (#01279, manufactured by Fujifilm Corporation) (1×10^4 cells/mL) obtained by inducing human mesenchymal stem cells from iPS cells, were cultured in α-MEM and a bone differentiation medium (containing 50 μg/mL ascorbic acid and 10 mM β-glycerol 2-phosphate). Ethanol (final concentration 0.1% by mass), or erythromycin, clarithromycin, or azithromycin (10 μg/mL for each) was added to the medium. The medium was exchanged every 3 days, and after 15 days, the cells were stained with Alizarin red S, followed by performing of bone nodule measurement. The results are shown in FIG. 18 (stained images) and FIG. 19 (graph showing the proportion of bone nodules). In FIG. 18 and FIG. 19, the ethanol (final concentration 0.1% by mass)-added group is a control. In FIG. 19, the symbol * indicates p≤0.05, the symbol ** indicates p≤0.01, the symbol *** indicates p≤0.001, and the symbol **** indicates p≤0.0001.

The test system of assay [3] is experimental periodontitis model mice. Briefly: bone regeneration in experimental periodontitis model mice (teeth ligated with silk threads). The assay is classed as in vivo, mouse. As to conditions: 22-month-old aging mice; 20 mg/kg intraperitoneally once; 5 days regeneration period. The source says: Experimental periodontitis model mice in which teeth are ligated with silk threads are useful models for inflammatory bone destruction research because inflammations and bone resorption occur in about 10 days after the ligation. The above-described experimental periodontitis models were produced by using 6-week-old wild-type mice (N=8, male C57BL/6N mice, manufactured by CLEA Japan, Inc.), 22-month-old aging mice (N=4, male C57BL/6N mice, manufactured by CLEA Japan, Inc.), and 6-week-old DEL-1-deficient mice (N=8, male C57BL/6N mice (manufactured by CLEA Japan, Inc.), a method for producing the deficient mice was as described in Non Patent Document 1), the silk threads were removed 10 days after the ligation, a remission phase of inflammation of 5 days passed, and in the wild-type mice, new bone formation was recognized at the site of resorbed bone defect while no repair mechanism of the periodontal tissue by DEL-1 was recognized.
The experimental periodontitis models described in Example 1 were produced by using 6-week-old wild-type mice (N=8, male C57BL/6N mice, manufactured by CLEA Japan, Inc.), 22-month-old aging mice (N=4, male C57BL/6N mice, manufactured by CLEA Japan, Inc.), and 6-week-old DEL-1-deficient mice (N=8, male C57BL/6N mice (manufactured by CLEA Japan, Inc.), a method for producing the deficient mice was as described in Non Patent Document 1), the silk threads were removed 10 days after the ligation to experimentally induce periodontitis, subsequently a bone regeneration period of 5 days was provided, and then the amount of regeneration of resorbed bone was measured using a stereomicroscope and image measurement software (manufactured by Nikon Corporation). Erythromycin (10 mg/kg) and ethanol (final concentration 0.1% by mass) were intraperitoneally administered once after the removal of the silk threads. In addition, DEL-1 (1 μg) and Fc control (0.84 μg) were directly inoculated into the gingiva after the removal of the silk threads. The results are shown in FIG. 3 (left: wild-type mice, right: DEL-1-deficient mice) and FIG. 4 (aging mice).
Next, the experimental periodontitis model described in Example 1 was produced by using 22-month-old aging mice (N=4, male C57BL/6N mouse, manufactured by CLEA Japan, Inc.), the silk threads were removed 10 days after the ligation to experimentally induce periodontitis, subsequently a bone regeneration period of 5 days was provided, and the amount of regeneration of resorbed bone was measured using a stereomicroscope and image measurement software (manufactured by Nikon Corporation). Erythromycin (ERM) (20 mg/kg), azithromycin (AZM) (20 mg/kg), clarithromycin (CLM) (20 mg/kg), and ethanol (final concentration 0.1% by mass) as a control were intraperitoneally administered once after the removal of the silk threads. […] In addition, there was no difference in the amount of bone regeneration between the macrolide antimicrobial agent-administered groups.

For the next assay, the system named is osteoblasts. Briefly: bone nodule measurement in osteoblasts (Alizarin red S). The class given is cell-based, mouse. Conditions: osteoblasts derived from wild-type mice; 10 μg/mL each; 15 days. How it is done:
Next, from the cranial bones of 3-day-old wild-type mice (N=6, male C57BL/6N mice, manufactured by CLEA Japan, Inc.) and 3-day-old DEL-1-deficient mice (N=6, male C57BL/6N mice (manufactured by CLEA Japan, Inc.), a method for producing the deficient mice was as described in Non Patent Document 1), osteoblasts were isolated by allowing 0.1% by mass of type 1 collagenase and 0.2% by mass of dispase to act at 37° C. for 20 minutes, and the cells were cultured in α-MEM and a bone differentiation medium (containing 50 μg/ml ascorbic acid and 10 mM β-glycerol 2-phosphate). Ethanol (final concentration 0.1% by mass) and erythromycin (10 μg/mL) were added into the medium in which the osteoblasts (1×10^4 cells/mL) derived from the wild-type mice or the DEL-1-deficient mice were cultured. The medium was exchanged every 3 days, and after 15 days, the cells were stained with Alizarin red S, followed by performing of bone nodule measurement.
Next, the proportion (%) of bone nodules with respect to the observation region in the above-described osteoblasts was calculated from microscopic images by using image processing software (NIH Image). In addition, RNA was extracted from each of the osteoblasts by using an RNeasy Kit (manufactured by QIAGEN NV), subsequently cDNA was synthesized by using a cDNA synthesis kit (manufactured by Thermo Fisher Scientific, Inc.), and the relative expression levels of RUNX2 mRNA, Sp7 mRNA, and Bglap mRNA, which are important for bone regeneration, were checked by an RT-PCR method (Quantstudio3, Thermo Fisher Scientific, Inc.). Regarding primers, designed primers manufactured by Thermo Fisher Scientific, Inc. were used. The Assay IDs of the primers used are shown below.
(Bone regeneration-inducing effect 2 by various macrolide antimicrobial agents) From the cranial bones of 3-day-old wild-type mice (N=6, male C57BL/6N mice, manufactured by CLEA Japan, Inc.), osteoblasts were isolated by allowing 0.1% by mass of type 1 collagenase and 0.2% by mass of dispase to act at 37° C. for 20 minutes, and the cells were cultured in α-MEM and a bone differentiation medium (containing 50 μg/ml ascorbic acid and 10 mM β-glycerol 2-phosphate). Ethanol (final concentration 0.1% by mass), or erythromycin, clarithromycin, or azithromycin (10 μg/mL each) was added into the medium in which the osteoblasts (1×10^4 cells/mL) derived from the wild-type mice were cultured. The medium was exchanged every 3 days, and after 15 days, the cells were stained with Alizarin red S, followed by performing of bone nodule measurement. The results are shown in FIG. 11 In FIG. 11, the symbol * indicates p<0.05, and the symbol ** indicates p<0.01. In addition, the control is an ethanol (final concentration 0.1% by mass)-added group.

Setting [4] is: aged (10 years old) cynomolgus monkeys.
The mark [5] stands for this setting: young (2 years old) cynomolgus monkeys.

For the molecule `CC[C@H]1OC(=O)[C@H](C)[C@@H](O[C@H]2C[C@@](C)(OC)[C@@H](O)[C@H](C)O2)[C@H](C)[C@@H](O[C@@H]2O[C@H](C)C[C@H](N(C)C)[C@H]2O)[C@](C)(O)C[C@@H](C)CN(C)[C@H](C)[C@@H](O)[C@]1(C)O` [azithromycin], the “bone regeneration effect (FIG. 10)” value in assay [1] (setting [4]) and in assay [1] (setting [5]) was “a bone regeneration effect was recognized” in each case. Besides, the “formation of bone nodules (FIG. 18, FIG. 19)” value in assay [2] is reported as “the formation of bone nodules was recognized”. Besides, the “bone regeneration (FIG. 9)” value in assay [3] is recorded as “bone regeneration was recognized”. Also, the “formation of bone nodules (FIG. 11)” value in the assay with osteoblasts was “the formation of bone nodules was recognized; also recorded: particularly favorable”.

`CC[C@H]1OC(=O)[C@H](C)[C@@H](O[C@H]2C[C@@](C)(OC)[C@@H](O)[C@H](C)O2)[C@H](C)[C@@H](O[C@@H]2O[C@H](C)C[C@H](N(C)C)[C@H]2O)[C@](C)(OC)C[C@@H](C)C(=O)[C@H](C)[C@@H](O)[C@]1(C)O` [clarithromycin]: the “bone regeneration effect (FIG. 10)” value in assay [1] (setting [4]) and in assay [1] (setting [5]) was “a bone regeneration effect was recognized” in each case. Moreover, the “formation of bone nodules (FIG. 18, FIG. 19)” value in assay [2] was “the formation of bone nodules was recognized”. The “bone regeneration (FIG. 9)” value in assay [3] is recorded as “bone regeneration was recognized”. In addition, the “formation of bone nodules (FIG. 11)” value in the assay on osteoblasts is given as “the formation of bone nodules was recognized”.
